One test deals with T1, VEGFR2 (Homo sapiens, UniProt P35968).
T1 construct: purchased ProQinase GmbH
In words: Radioactive protein kinase assay (33PanQinase Activity Assay), VEGFR2. As to conditions: ATP 1.0 μM (Km), substrate Poly(Glu, Tyr) 4:1, 30° C., 60 minutes; read-out: Biochemical IC50 (nM) VEGFR2. The protocol: (§1) Biochemical inhibitory activity against AXL and VEGFR2 kinases: the biochemical IC50 values of the compound according to the present application for inhibiting AXL and VEGFR2 kinases were measured by ProQinase GmbH Company (Breisacher Str. 117, D-79106 Freiburg, Germany, www.proqinase.com). The specific steps are described as follows:
(§2) Firstly, the compound according to the present application was dissolved in dimethyl sulfoxide (DMSO) to prepare a stock solution of 1×10^−3 M. 10 different concentrations (from […] to 3×10^−10 M) were prepared by the serial semi-logarithmic dilution.
(§3) The biochemical activities of AXL and VEGFR2 were determined by the radioactive protein kinase assay (33PanQinase® Activity Assay). The assay was performed using a FlashPlates™ 96-well plate manufactured by Perkin Elmer (Boston, Mass., USA) with a reaction volume of 50 μL. The reaction mixture was added by a dropper in the following four steps:
(§4) (1) 20 μL of buffer solution (standard buffer);
(§5) (2) 5 μL of an aqueous solution of ATP;
(§6) (3) 5 μL of the compound (10% DMSO solution);
(§7) (4) 10 μL of a substrate/10 μL of a solution of the kinase.
(§8) The solution to be measured contains HEPES-NaOH (70 mM, pH=7.5), MgCl2 (3 mM), MnCl2 (3 mM), Na-orthovanadate (3 μM), DTT (1.2 mM), PEG20000 (50 μg/mL), ATP (in a concentration that is same as Km of the kinase and varies depending on different kinases), [γ-^33P]-ATP (about 4×10^5 cpm/well), kinase and substrate.
(§9) The reaction was carried out at 30° C. for 60 minutes, and 50 μL of 2% (v/v) phosphoric acid was added to terminate the reaction. The reaction mixture in each well was aspirated and washed twice with 200 μL of 0.9% (w/v) NaCl solution. The amount of the incorporation of ^33P was determined by using a microplate scintillation counter.

For the next test, the target named is T2, AXL (Homo sapiens, UniProt P30530).
T2 construct: purchased ProQinase GmbH
T2 sequence (P30530 26-894): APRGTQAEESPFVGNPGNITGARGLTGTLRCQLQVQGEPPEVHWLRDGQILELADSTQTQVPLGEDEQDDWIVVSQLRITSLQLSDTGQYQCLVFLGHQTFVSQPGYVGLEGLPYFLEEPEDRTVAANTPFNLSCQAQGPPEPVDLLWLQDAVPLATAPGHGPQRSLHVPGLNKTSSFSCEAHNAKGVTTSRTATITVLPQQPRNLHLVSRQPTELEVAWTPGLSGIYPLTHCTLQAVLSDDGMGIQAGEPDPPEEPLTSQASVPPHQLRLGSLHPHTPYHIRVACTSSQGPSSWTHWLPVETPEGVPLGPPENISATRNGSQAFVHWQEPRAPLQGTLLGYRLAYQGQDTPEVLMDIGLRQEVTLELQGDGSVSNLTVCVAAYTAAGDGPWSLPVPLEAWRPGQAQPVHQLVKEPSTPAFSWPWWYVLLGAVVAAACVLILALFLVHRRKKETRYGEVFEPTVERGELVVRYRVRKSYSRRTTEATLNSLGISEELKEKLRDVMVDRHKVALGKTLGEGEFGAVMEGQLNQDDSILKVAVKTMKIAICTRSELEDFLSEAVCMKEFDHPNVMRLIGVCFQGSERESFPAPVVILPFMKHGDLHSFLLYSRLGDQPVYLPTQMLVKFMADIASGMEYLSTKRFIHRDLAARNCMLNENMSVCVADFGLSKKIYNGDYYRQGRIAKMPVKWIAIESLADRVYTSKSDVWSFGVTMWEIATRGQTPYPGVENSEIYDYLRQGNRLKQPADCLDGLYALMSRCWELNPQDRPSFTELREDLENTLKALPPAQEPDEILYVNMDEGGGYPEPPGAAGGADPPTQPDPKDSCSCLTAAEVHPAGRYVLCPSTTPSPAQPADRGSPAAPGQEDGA
The test can be described thus: Radioactive protein kinase assay (33PanQinase Activity Assay), AXL. Conditions: ATP 0.3 μM (Km), substrate Poly(Glu, Tyr) 4:1, 30° C., 60 minutes; read-out: Biochemical IC50 (nM) AXL. As for the experimental part:
as §1, §2, §3, §4, §5, §6, §7, §8, §9

The IC50 is the concentration that gives 50% inhibition.

T1 sequence (P35968 20-1356): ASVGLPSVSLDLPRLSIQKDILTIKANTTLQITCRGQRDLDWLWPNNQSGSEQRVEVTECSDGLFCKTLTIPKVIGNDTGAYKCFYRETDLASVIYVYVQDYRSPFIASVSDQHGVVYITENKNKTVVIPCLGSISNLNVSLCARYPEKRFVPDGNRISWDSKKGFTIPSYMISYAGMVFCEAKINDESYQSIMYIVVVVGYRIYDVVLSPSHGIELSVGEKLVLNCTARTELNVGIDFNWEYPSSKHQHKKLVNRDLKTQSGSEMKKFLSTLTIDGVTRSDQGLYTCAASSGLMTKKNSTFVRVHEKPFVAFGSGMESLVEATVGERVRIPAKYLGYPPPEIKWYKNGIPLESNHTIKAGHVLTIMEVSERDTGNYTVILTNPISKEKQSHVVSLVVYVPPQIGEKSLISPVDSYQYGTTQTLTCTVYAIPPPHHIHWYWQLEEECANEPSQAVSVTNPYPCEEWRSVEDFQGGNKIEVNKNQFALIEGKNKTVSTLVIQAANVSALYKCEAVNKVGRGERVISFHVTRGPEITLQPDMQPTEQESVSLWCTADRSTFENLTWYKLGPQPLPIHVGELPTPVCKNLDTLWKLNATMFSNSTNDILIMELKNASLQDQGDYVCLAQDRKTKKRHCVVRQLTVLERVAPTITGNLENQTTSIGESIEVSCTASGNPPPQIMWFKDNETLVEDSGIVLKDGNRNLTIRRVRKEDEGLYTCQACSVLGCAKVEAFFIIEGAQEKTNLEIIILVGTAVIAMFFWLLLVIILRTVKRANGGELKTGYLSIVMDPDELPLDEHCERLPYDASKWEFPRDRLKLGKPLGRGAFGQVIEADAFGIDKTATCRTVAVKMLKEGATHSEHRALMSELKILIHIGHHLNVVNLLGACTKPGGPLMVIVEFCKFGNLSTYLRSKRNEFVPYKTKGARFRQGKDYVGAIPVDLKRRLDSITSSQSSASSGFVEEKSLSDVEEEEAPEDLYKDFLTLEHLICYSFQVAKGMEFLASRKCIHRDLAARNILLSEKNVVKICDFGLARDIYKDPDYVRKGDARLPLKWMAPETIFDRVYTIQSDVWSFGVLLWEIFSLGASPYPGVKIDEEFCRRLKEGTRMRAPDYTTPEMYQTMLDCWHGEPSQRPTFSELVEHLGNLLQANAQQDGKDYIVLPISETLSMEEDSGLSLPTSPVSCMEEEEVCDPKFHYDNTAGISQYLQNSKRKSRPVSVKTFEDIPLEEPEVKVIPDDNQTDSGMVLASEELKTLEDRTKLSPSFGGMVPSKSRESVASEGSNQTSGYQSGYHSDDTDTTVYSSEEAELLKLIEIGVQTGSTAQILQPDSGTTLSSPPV

Turning to `CCOc1cc2c(Oc3ccc(NC(=O)C4(C(=O)Nc5ccc(F)cc5)CC4)cc3F)ccnc2cc1OCC(=O)O` [Example 18, Potassium 2-[[4-[2-fluoro-4-[[1-[(4-fluorophenyl)carbamoyl]cyclopropanecarbonyl]amino]phenoxy]-6-ethoxy-7-quinolyl]oxy]acetate], the IC50 on VEGFR2 worked out at 9.86 nM; at AXL, 10.7 nM.
Turning to `COc1cc2c(Oc3ccc(NC(=O)C4(C(=O)Nc5ccc(F)cc5)CC4)cc3F)ccnc2cc1OCCCCCC(=O)O` [Example 13, 1,3-dihydroxy-2-(hydroxymethyl)propan-2-ammonium 6-[[4-[2-fluoro-4-[[1-[(4-fluorophenyl)carbamoyl]cyclopropanecarbonyl]amino]phenoxy]-6-methoxy-7-quinolyl]oxy]caproate], the IC50 at VEGFR2 turned out to be 12.6 nM; at AXL it was 8.63 nM.
Regarding `COc1cc2c(Oc3ccc(NC(=O)C4(C(=O)Nc5ccc(F)cc5)CC4)cc3F)ccnc2cc1OCCCCCC(=O)O` [Example 12, Calcium 6-[[4-[2-fluoro-4-[[1-[(4-fluorophenyl)carbamoyl]cyclopropanecarbonyl]amino]phenoxy]-6-methoxy-7-quinolyl]oxy]caproate (1:1)], the IC50 at VEGFR2 was determined as 10.4 nM; at AXL, 10.7 nM.
With `COc1cc2c(Oc3ccc(NC(=O)C4(C(=O)Nc5ccc(F)cc5)CC4)cc3F)ccnc2cc1OCCCC(=O)O` [Example 3, 4-[[4-[2-fluoro-4-[[1-[(4-fluorophenyl)carbamoyl]cyclopropanecarbonyl]amino]phenoxy]-6-methoxy-7-quinolyl]oxy]butyric acid], the IC50 stood at 6.56 nM on VEGFR2 and 9.86 nM at AXL.
`COc1cc2c(Oc3ccc(NC(=O)C4(C(=O)Nc5ccc(F)cc5)CC4)cc3F)ccnc2cc1OCCCCCC(=O)O` [Example 11, Potassium 6-[[4-[2-fluoro-4-[[1-[(4-fluorophenyl)carbamoyl]cyclopropanecarbonyl]amino]phenoxy]-6-methoxy-7-quinolyl]oxy]caproate]: the figures for the IC50 at VEGFR2 and on AXL were 13.6 nM and 14.9 nM, respectively.
As to `COc1cc2c(Oc3ccc(NC(=O)C4(C(=O)Nc5ccc(F)cc5)CC4)cc3F)ccnc2cc1OCCCCCCC(=O)O` [Example 14, 7-[[4-[2-fluoro-4-[[1-[(4-fluorophenyl)carbamoyl]cyclopropanecarbonyl]amino]phenoxy]-6-methoxy-7-quinolyl]oxy]heptanoic acid], the IC50 on VEGFR2 is 13.6 nM; at AXL, 13.7 nM.
On the same counts, the results for `COc1cc2c(Oc3ccc(NC(=O)C4(C(=O)Nc5ccc(F)cc5)CC4)cc3F)ccnc2cc1OCCCC(=O)O` [Example 4, Sodium 4-[[4-[2-fluoro-4-[[1-[(4-fluorophenyl)carbamoyl]cyclopropanecarbonyl]amino]phenoxy]-6-methoxy-7-quinolyl]oxy]butyrate] are 8.03 nM and 9.05 nM.
Turning to `COc1cc2c(Oc3ccc(NC(=O)C4(C(=O)Nc5ccc(F)cc5)CC4)cc3F)ccnc2cc1OCC(=O)O` [Example 1, 2-[[4-[2-fluoro-4-[[1-[(4-fluorophenyl)carbamoyl]cyclopropanecarbonyl]amino]phenoxy]-6-methoxy-7-quinolyl]oxy]acetic acid], the IC50 at VEGFR2 amounted to 24.5 nM; at AXL it was 55.3 nM.
`COc1cc2c(Oc3ccc(NC(=O)C4(C(=O)Nc5ccc(F)cc5)CC4)cc3F)ccnc2cc1OCCCCCC(=O)O` [Example 9, 6-[[4-[2-fluoro-4-[[1-[(4-fluorophenyl)carbamoyl]cyclopropanecarbonyl]amino]phenoxy]-6-methoxy-7-quinolyl]oxy]caproic acid]: the values for the IC50 at VEGFR2 and at AXL were 16 nM and 10.2 nM, respectively.
On the same counts, the results for `COc1cc2c(Oc3ccc(NC(=O)C4(C(=O)Nc5cccc(Cl)c5)CC4)cc3F)ccnc2cc1OCCCCCCC(=O)O` [Example 16, Calcium 7-[[4-[2-fluoro-4-[[1-[(3-chlorophenyl)carbamoyl]cyclopropanecarbonyl]amino]phenoxy]-6-methoxy-7-quinolyl]oxy]heptanoate] are 18.9 nM and 19.8 nM.
Take `COc1cc2c(Oc3ccc(NC(=O)C4(C(=O)Nc5ccc(F)cc5)CC4)cc3F)ccnc2cc1OCCCCC(=O)O` [Example 8, Triethylammonium 5-[[4-[2-fluoro-4-[[1-[(4-fluorophenyl)carbamoyl]cyclopropanecarbonyl]amino]phenoxy]-6-methoxy-7-quinolyl]oxy]valerate]: the IC50 was 8.66 nM at VEGFR2 and 6.08 nM at AXL.
Turning to `COc1cc2c(Oc3ccc(NC(=O)C4(C(=O)Nc5ccc(F)cc5)CC4)cc3F)ccnc2cc1OCCCCCC(=O)O` [Example 10, Sodium 6-[[4-[2-fluoro-4-[[1-[(4-fluorophenyl)carbamoyl]cyclopropanecarbonyl]amino]phenoxy]-6-methoxy-7-quinolyl]oxy]caproate], the IC50 at VEGFR2 amounted to 13.9 nM; on AXL it was 11.9 nM.
`COc1cc2c(Oc3ccc(NC(=O)C4(C(=O)Nc5ccc(F)cc5)CC4)cc3F)ccnc2cc1OCCCCC(=O)O` [Example 6, 5-[[4-[2-fluoro-4-[[1-[(4-fluorophenyl)carbamoyl]cyclopropanecarbonyl]amino]phenoxy]-6-methoxy-7-quinolyl]oxy]valeric acid]: the IC50 on VEGFR2 stood at 6.6 nM; at AXL it was 7.49 nM.

Values taken from patent US10723701B2, “Quinolyl-substituted carboxylic acid compound or pharmaceutically acceptable salt thereof, pharmaceutical composition of the same, and use of the same” (BEIJING KONRUNS PHARMACEUTICAL CO., LTD., priority 2016, dated 2020).
